Data taken from patent publication US20170165295A1, “COMPOSITION FOR PREVENTING, ALLEVIATING OR TREATING CONSTIPATION, CONTAINING HIGH HARDNESS MINERAL WATER PREPARED FROM DEEP OCEAN WATER OR DESALINATED GROUNDWATER” (ARIBIO INC., priority 2012, published 2017).
Where a name gives a salt, the structure may show the parent alone. Marks after values point to notes of the source that are not given here.

Tests used:
[1] = tested on: loperamide-induced constipated rats; test: Fecal parameters in loperamide-induced constipated rats; format: in vivo; conditions: for Fecal dry-weights / Fecal wet-weights / Numbers of fecal pellets / Water contents of fecal pellets: collected at 4th administration day (24 hrs), mean ± S.D. of nine rats
Protocol: (§1) 6-week-old rats (SLC, Japan) were used for an experiment after acclimatization to new environments for 7 days. Five rats were raised per cage at 20-25° C. and 45-50% humidity. The light-dark cycle was 12 hr: 12 hr, and water and food were freely available. The rats were classified into six groups (nine rats per group, a total of 54 rats) based on the body weight thereof. Specific groups are as follows:
(§2) Administration of Test Material Magnesium hydroxide (Mg(OH)2; MagMill™) was purchased from Samnam Pharm. In order to protect test materials from light and moisture, the test materials were stored in a refrigerator at 4° C. The mineral water was orally administered at 10 ml/kg for each time, at an interval of 6 hours (30 ml/kg/day), three times a day, for a total of six days. The administration for each time was conducted 1 hour after administration of loperamide 3 mg/kg. Magnesium hydroxide was mixed with distilled water, and the mixture was orally administered once a day for a total of six days, and the same amount of distilled water was orally administered at the time of second and third administrations. Distilled water, instead of mineral water, was administered to groups 1 and 2.
(§3) In order to induce constipation, loperamide hydrochloride (Sigma, MO, U.S.) 3 mg/kg was mixed with saline water 5 ml/kg, and the mixture was orally administered to animals 1 hour before administration of the test material, once a day, for a total of six days. Detailed methods are disclosed in Bustos et al. Acta Gastroenterol Latinoam, 1991; 21:3-9 and Wintola et al. BMC Gastroenterol, 2010; 10:95, which are incorporated by reference into the present specification.
The fecal pellets of each rat were collected 24 hours after the 4th administration day. The total number, wet weight, and water content of the fecal pellets were checked. The water content was calculated by equation 2 below:
Water content of fecal pellets (%)=((wet weight of fecal pellets−dry weight of fecal pellets)/wet weight of fecal pellets)×100 [Equation 2]
(§4) Multiple comparison tests of the groups with different dosages were conducted. Variance homogeneity was examined using the Levene test (Levene A, Clin Otalary, 1981; 6:145-51). […] In cases where significant deviations from variance homogeneity were observed by the Levene test, the non-parametric comparison test and Kruskal-Wallis H test were conducted. When a significant difference was observed by the Kruskal-Wallis H test, the Mann-Whitney U (MW) test was used to determine the significance of specific pairwise comparisons. Statistical analyses were conducted using SPSS (Release 14K, SPSS Inc. USA; Ludbrook, Clin Exp Pharmacol Physiol, 1997; 24:294-6). In addition, the percentage change between the normal group and loperamide control was calculated to identify the severity of induced constipation, and then, in order to evaluate the efficacy of the test materials, the percent change compared with the loperamide control was calculated by equations 4 and 5.
(§5) Percent change compared with normal group (%)=(((normal group data)−(loperamide control data)/normal group data)×100) [Equation 4]
(§6) Percentage change (%) compared with loperamide control=(((loperamide control data−test material administered rat data)/(loperamide control data))×100) [Equation 5]

[2] = tested on: loperamide-induced constipated rats; test: Remnant fecal pellets in the colon of loperamide-induced constipated rats; format: in vivo
Protocol: as §1, §2, §3
The total number and mean thickness (short axis) of remnant fecal pellets in the colonic lumen were measured when the gastrointestinal charcoal transit ratio was measured.
as §4, §5, §6

[3] = Body weight change of loperamide-induced constipated rats
Protocol: as §1, §2, §3
Body weight was measured once per day 1 day before the test material administration, at the day of the initiation of administration, and 1, 2, 3, 4, and 5 days after the initiation of administration, to verify the body weight change according to administration of the test material. All the animals were fasted (excluding water) for 5 days after the initiation of administration for one overnight in order to decrease the body weight difference due to feed ingestion and measure the intestinal charcoal transit ratio. In addition, the body weight gain was calculated by equation 1.
Body weight gain (g)=body weight at 6th administration last day−body weight at the day of the initiation of administration. [Equation 1]

[4] = tested on: loperamide-induced constipated rats; test: Histomorphometry of the colon and remnant fecal pellets in loperamide-induced constipated rats; format: in vivo; conditions: for Colon mucosa thicknesses / Fecal pellet surface mucous thickness / Mucous producing cell numbers: at sacrifice, 6 days of administration, mean ± S.D. of nine rats; for Mucous producing cell numbers: colonic mucosa
Protocol: as §1, §2, §3
Histopathological assessment of the colonic mucosa and remnant fecal pellets in the colonic lumen was conducted by the method of Wu et al. J Ethnopharmacol, 2011; 134:406-13, with minor modification. In short, the distal colon fragment containing one fecal pellet was isolated using ligatures, removed, and immediately fixed with 10% formaldehyde (when the gastrointestinal charcoal transit ratio was measured). The fixed tissue segments were paraffin-embedded, and sliced into 3 μm-thickness cross sections. The sliced samples were stained with Alcian blue at pH 2.5. Five tissue segments per group were prepared, and histological profiles thereof were interpreted. The histopathologist was blinded to the group distributions at the time of analysis.
Histomorphometry: The mean thickness of the mucosal layers at the fecal surface (μm/fecal pellet), mucous-producing cell number (cells/mm^2) per unit area in the colonic mucosa, and the colonic mucosal thickness (μm/colon) were measured by using an automated image analyzer (DMI-300, DMI, Korea) under a light microscope.
as §4, §5

[5] = tested on: loperamide-induced constipated rats; test: Gastrointestinal charcoal transit ratio in loperamide-induced constipated rats; format: in vivo; conditions: for Gastrointestinal charcoal transit ratio / Length of charcoal meal transferred: during 30 min after charcoal meal, after 6th administration, mean ± S.D. of nine rats
Protocol: as §1, §2, §3
The gastrointestinal propulsion of the charcoal meal was checked by the method disclosed in Sagar et al. BMC Complement Altern Med, 2005; 5:18, with minor modification. Prior to the experiment, animals were fasted for 18 hours (water supplied). Ten minutes after the 6th administration (last) of the test material, animals of each group were fed with 1 ml of charcoal meal (3% suspension of activated charcoal in 0.5% aqueous methylcellulose). Thirty minutes after charcoal meal ingestion, the animals of each group were sacrificed, and the total small intestine length (from pyloric sphincter to appendix) and the charcoal meal transit distance were measured. The gastrointestinal charcoal transit ratio was calculated by equation 3 below:
Charcoal transit ratio (%)=(([…])/total small intestine length)×100 [Equation 3]
as §4, §5, §6

[6] = loperamide control 3 mg/kg, percent change compared with the normal group
[7] = at sacrifice after 6th administration, 18 h fasting, mean ± S.D. of nine rats
[8] = percent change compared with the loperamide control

With CN(C)C(=O)C(CCN1CCC(O)(c2ccc(Cl)cc2)CC1)(c1ccccc1)c1ccccc1 [Loperamide, loperamide hydrochloride] the Fecal dry-weights [1] was 4.17 ± 0.63^a g/24 hr/rat, the Fecal wet-weights [1] was 7.65 ± 1.25^d g/24 hr/rat and the “Numbers of fecal pellets” value [1] was 45.22 ± 4.97^d. For the same compound, the “Water contents of fecal pellets” value [1] was 45.29 ± 4.06^a %, the “change in number of fecal pellets for 24 hours, 4 days after administration” value [1, 6] was −27.45% and the “change in water content in fecal pellets for 24 hours, 4 days after administration” value [1, 6] was −17.47%. For the same compound, the “Remnant fecal pellets in the colon: Numbers” value [2, 7] was 3.89 ± 1.05^a, the “change in mean diameter of remnant fecal pellets in the colon” value [2, 6] was 57.96% and the “change in number of remnant fecal pellets in the colon” value [2, 6] was 118.75%. For the same compound, the “significant changes in body weight and weight gain” value ([3]; compared with the normal group and loperamide control) was “not observed”, the “change in weight gain during the administration period” value ([3]; loperamide control 3 mg/kg, percent change compared with normal group) was −7.92% and the Colon mucosa thicknesses [4] was 104.38 ± 10.79^c μm. The “Fecal pellet surface mucous thickness” value [4] was 5.84 ± 2.53^a μm, the “Mucous producing cell numbers” value [4] was 179.00 ± 46.31^c cells/mm^2 and the “change in colon mucosa thickness” value [4, 6] was −70.97%. For the same compound, the “change in fecal pellet surface mucosal thickness in the colon” value [4, 6] was −89.93%, the “change in mucous-producing cell number per unit area in the colonic mucosa” value [4, 6] was −72.40% and the “Gastrointestinal charcoal transit ratio” value [5] was 61.20 ± 5.98^a %. For the same compound, the “Length of charcoal meal transferred” value [5] was 74.21 ± 6.41^a cm and the “change in intestinal charcoal transit ratio” value [5, 6] was −20.05%.
For [Mg+2].[OH-].[OH-] [Mg(OH)2, Magnesium hydroxide], the Fecal dry-weights [1] was 4.21 ± 0.55^a g/24 hr/rat, the Fecal wet-weights [1] was 9.18 ± 0.88^dg g/24 hr/rat and the “Numbers of fecal pellets” value [1] was 52.33 ± 4.21^ef. For the same compound, the “Water contents of fecal pellets” value [1] was 53.50 ± 9.99^c %, the “change in number of fecal pellets for 24 hours, 4 days after administration” value [1, 8] was 17.94% and the “change in water content in fecal pellets for 24 hours, 4 days after administration” value [1, 8] was 18.12%. The “Remnant fecal pellets in the colon: Numbers” value [2, 7] was 1.89 ± 0.93^c, the “change in mean diameter of remnant fecal pellets in the colon” value [2, 8] was −18.76% and the “change in number of remnant fecal pellets in the colon” value [2, 8] was −51.43%. For the same compound, the “Remnant fecal pellets in the colon: Mean thicknesses” value ([2]; short axis, at sacrifice after 6th administration, 18 h fasting, mean ± S.D. of nine rats) was 5.26 ± 0.38^c μm, the “Body weights at Last (6th) administration [B]” value ([3]; after overnight fasting, loperamide 3 mg/kg, Mg(OH)2 200 mg/kg/day or mineral water 30 ml/kg/day oral, mean ± S.D. of nine rats) was 241.67 ± 10.36 g and the “Body weight gains [B − A]” value ([3]; last (6th) administration minus initiation of administration, mean ± S.D. of nine rats) was 22.44 ± 4.19 g. The “change in weight gain during the administration period” value [3, 8] was 8.60%, the “Body weights at Initiation of administration [A]” value ([3]; rats given loperamide 3 mg/kg, Mg(OH)2 200 mg/kg/day or mineral water 30 ml/kg/day oral, 6 days, mean ± S.D. of nine rats) was 219.22 ± 8.79 g and the “Body weights at Fifth administration” value ([3]; rats given loperamide 3 mg/kg, Mg(OH)2 200 mg/kg/day or mineral water 30 ml/kg/day oral, mean ± S.D. of nine rats) was 260.33 ± 12.38 g. For the same compound, the Colon mucosa thicknesses [4] was 164.16 ± 22.31^cd μm, the “Fecal pellet surface mucous thickness” value [4] was 24.33 ± 7.82^ab μm and the “Mucous producing cell numbers” value [4] was 313.56 ± 42.27^cd cells/mm^2. The “change in colon mucosa thickness” value [4, 8] was 57.27%, the “change in fecal pellet surface mucosal thickness in the colon” value [4, 8] was 316.22% and the “change in mucous-producing cell number per unit area in the colonic mucosa” value [4, 8] was 75.17%. The “Gastrointestinal charcoal transit ratio” value [5] was 66.76 ± 3.47^ac %, the “Length of charcoal meal transferred” value [5] was 83.33 ± 6.06^a cm and the “change in intestinal charcoal transit ratio” value [5, 8] was 9.10%.
